Tests used:
[1] = ref Kimes et al., 2003; cited from earlier work
[2] = tested on: human α3β4 nAChR; assay: [86Rb+]rubidium efflux functional assay, YXα3β4H1 cells; type: cell-based; details: for As Antagonist, α3β4 nAChR, inhibition of nicotine-stimulated 86Rb+ efflux: vs 100 μM nicotine
[3] = biological target: nAChR α3β4 (Homo sapiens, UniProt P30926+P32297); type: binding
[4] = biological target: hα4β2 nAChR (Homo sapiens, UniProt P17787+P43681); type: binding; details: read-out: Ki α4β2; human cloned receptors, 3H-epibatidine
[5] = biological target: hβ4 nAChR subtypes; type: binding, human; details: read-out: Affinity for hβ4 nAChR subtypes; range over α4β4, α3β4, α2β4
[6] = biological target: hα2β2 nAChR (Homo sapiens, UniProt P17787+Q15822); assay: biochemical; type: binding
[7] = tested on: human α4β2 nAChR; assay: [86Rb+]rubidium efflux functional assay, YXα4β2H1 cells; type: cell-based; details: for As Antagonist, α4β2 nAChR, inhibition of nicotine-stimulated 86Rb+ efflux: vs 100 μM nicotine
[8] = tested on: all other receptor subtypes tested; assay: PDSP screen of other receptor subtypes at 10 μM; type: binding, human; details: significant inhibition >50%
[9] = biological target: nAChR α4β4 (Homo sapiens, UniProt P30926+P43681); type: binding
[10] = biological target: α7 nAChR (Rattus norvegicus, UniProt Q05941); type: binding; details: read-out: Ki α7; rat cloned receptors labeled with 125I-α-bungarotoxin
[11] = biological target: nAChR α2β4 (Homo sapiens, UniProt P30926+Q15822); assay: biochemical; type: binding
[12] = biological target: hα3β2 nAChR (Homo sapiens, UniProt P17787+P32297); type: binding
[13] = Expanded acute toxicity study, intravenous, rats; type: in vivo, Sprague-Dawley rats
[14] = 100 μM, 100 μM nicotine as 100%
[15] = [α4β2 affinity/other receptor affinity]×100, human α4β2 affinities

Sequence of hα2β2 nAChR (Q15822 27-529): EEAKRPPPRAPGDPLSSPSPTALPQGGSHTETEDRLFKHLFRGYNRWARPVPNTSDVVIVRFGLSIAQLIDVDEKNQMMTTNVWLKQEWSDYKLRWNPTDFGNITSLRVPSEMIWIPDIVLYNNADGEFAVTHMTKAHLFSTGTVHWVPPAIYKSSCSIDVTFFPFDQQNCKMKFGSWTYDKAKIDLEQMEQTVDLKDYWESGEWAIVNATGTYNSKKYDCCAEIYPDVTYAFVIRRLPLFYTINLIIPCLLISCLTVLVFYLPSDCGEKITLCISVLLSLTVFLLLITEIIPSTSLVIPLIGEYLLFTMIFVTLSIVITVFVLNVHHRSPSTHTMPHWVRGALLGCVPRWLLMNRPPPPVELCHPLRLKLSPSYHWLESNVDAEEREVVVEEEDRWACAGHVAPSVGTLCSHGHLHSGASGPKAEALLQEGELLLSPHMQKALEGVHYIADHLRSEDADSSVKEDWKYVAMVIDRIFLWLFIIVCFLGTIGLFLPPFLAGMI
Sequence of hα2β2 nAChR (P17787 26-502): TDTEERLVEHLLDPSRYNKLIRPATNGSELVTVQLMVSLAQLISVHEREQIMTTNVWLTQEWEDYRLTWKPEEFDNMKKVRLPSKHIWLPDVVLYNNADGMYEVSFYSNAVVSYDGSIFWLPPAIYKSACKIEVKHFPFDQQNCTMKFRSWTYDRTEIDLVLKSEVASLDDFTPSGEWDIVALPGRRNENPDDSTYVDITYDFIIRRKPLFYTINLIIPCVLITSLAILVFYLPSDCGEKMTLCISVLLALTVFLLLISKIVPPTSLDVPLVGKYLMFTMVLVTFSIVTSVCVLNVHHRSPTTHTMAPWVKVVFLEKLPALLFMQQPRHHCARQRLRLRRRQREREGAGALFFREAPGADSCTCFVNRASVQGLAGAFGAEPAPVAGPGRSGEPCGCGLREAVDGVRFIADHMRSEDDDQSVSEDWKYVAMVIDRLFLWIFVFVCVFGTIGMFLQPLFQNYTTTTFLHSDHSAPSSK
Sequence of nAChR α4β4 (P43681 29-627): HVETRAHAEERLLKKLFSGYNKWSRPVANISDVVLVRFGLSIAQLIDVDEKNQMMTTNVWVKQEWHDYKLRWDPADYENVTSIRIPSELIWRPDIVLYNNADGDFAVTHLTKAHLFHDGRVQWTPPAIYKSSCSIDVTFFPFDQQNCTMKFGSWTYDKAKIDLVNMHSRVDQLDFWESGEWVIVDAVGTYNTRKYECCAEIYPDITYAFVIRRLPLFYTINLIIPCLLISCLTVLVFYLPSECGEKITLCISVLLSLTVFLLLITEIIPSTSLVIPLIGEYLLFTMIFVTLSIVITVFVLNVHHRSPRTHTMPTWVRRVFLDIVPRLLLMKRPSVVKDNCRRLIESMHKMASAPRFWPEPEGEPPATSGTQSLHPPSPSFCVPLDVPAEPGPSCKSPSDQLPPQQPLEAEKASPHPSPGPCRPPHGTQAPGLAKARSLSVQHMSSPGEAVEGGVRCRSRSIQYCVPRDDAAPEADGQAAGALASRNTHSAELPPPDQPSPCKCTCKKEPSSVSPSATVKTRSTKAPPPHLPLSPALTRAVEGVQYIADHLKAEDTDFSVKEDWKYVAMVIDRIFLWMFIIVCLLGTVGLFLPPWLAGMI
Sequence of nAChR α4β4 (P30926 22-498): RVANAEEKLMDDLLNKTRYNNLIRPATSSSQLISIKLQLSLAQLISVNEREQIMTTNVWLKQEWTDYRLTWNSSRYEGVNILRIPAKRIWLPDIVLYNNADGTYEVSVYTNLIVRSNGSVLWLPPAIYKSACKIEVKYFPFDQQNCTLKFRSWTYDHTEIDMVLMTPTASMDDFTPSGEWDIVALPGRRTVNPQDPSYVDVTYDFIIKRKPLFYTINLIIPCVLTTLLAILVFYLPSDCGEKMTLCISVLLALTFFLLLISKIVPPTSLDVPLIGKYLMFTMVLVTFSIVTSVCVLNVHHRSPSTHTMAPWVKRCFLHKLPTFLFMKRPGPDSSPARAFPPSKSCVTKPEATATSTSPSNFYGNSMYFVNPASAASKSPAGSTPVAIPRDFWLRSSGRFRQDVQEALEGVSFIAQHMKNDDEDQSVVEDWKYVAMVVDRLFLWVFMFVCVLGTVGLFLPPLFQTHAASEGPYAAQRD
Sequence of nAChR α2β4 (Q15822 27-529): as the sequence (Q15822 27-529) above
Sequence of nAChR α2β4 (P30926 22-498): as the sequence (P30926 22-498) above
Sequence of nAChR α3β4 (P32297 32-505): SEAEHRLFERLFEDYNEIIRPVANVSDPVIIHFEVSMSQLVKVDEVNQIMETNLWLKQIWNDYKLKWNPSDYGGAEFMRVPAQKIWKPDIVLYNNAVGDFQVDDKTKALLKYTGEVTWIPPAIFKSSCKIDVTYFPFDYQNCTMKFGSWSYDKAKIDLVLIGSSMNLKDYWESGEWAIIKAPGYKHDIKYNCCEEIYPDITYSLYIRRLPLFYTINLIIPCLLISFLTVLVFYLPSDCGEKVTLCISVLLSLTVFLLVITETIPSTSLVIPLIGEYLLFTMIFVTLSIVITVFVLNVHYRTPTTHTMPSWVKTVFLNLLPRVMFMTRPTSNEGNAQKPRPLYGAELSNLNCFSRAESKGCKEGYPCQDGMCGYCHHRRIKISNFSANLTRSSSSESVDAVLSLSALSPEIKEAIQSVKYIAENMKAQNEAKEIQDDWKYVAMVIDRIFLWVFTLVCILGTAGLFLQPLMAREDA
Sequence of nAChR α3β4 (P30926 22-498): as the sequence (P30926 22-498) above
Sequence of hα3β2 nAChR (P17787 26-502): as the sequence (P17787 26-502) above
Sequence of hα3β2 nAChR (P32297 32-505): as the sequence (P32297 32-505) above
Sequence of α7 nAChR (Q05941 23-502): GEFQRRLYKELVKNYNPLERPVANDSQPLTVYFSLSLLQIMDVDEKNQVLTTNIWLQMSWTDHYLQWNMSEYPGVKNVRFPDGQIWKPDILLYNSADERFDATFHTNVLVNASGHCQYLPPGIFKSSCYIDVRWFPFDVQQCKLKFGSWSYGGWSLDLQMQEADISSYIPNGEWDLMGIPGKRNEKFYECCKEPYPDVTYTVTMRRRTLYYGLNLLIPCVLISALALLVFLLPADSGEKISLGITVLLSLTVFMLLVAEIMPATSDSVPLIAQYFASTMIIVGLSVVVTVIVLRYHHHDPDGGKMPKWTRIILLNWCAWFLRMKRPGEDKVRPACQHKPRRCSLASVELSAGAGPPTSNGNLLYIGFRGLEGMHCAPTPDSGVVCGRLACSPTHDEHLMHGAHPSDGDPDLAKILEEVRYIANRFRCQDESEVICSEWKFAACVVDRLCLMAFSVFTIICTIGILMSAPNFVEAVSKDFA
Sequence of hα4β2 nAChR (P17787 26-502): as the sequence (P17787 26-502) above
Sequence of hα4β2 nAChR (P43681 27-627): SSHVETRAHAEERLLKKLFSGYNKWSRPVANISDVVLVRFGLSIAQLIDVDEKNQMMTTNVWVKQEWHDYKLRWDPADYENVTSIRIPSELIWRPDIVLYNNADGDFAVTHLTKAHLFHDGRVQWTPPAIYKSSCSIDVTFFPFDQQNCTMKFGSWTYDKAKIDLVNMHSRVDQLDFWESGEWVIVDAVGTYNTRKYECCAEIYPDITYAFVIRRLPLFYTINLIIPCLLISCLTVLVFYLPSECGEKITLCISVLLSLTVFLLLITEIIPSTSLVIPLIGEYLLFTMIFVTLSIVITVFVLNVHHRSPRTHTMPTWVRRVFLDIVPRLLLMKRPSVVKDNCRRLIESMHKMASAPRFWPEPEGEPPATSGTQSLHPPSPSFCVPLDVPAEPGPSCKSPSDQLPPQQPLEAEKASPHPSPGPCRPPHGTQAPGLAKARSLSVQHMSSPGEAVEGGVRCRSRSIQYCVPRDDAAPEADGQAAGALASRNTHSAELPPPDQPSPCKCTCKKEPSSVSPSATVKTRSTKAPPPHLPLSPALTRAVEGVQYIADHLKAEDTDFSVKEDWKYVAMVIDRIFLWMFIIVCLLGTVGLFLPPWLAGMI

In the case of `Fc1ncccc1OC[C@@H]1CCN1` [[^18F]2-FA-85380, 2-fluoro-3-(2(S)-azetidinylmethoxy)pyridine], the “Dose with no adverse effects” value [1] is given as “up to 10 pmol/kg”.
With `Fc1ncccc1OC[C@@H]1C=CCN1` [Nifene] the “As Antagonist, α3β4 nAChR, inhibition of nicotine-stimulated 86Rb+ efflux” value (shortened to “As Antagonist, α3β4 nAChR, inhibition”) ([2]; 1 μM) was 9%, the “As Antagonist, α3β4 nAChR, inhibition” value ([2]; 10 μM) was 16% and the “As Agonist, α3β4 nAChR, stimulated 86Rb+ efflux” value [2, 14] was 35%. For the same compound, the “As Antagonist, α3β4 nAChR, inhibition” value ([2]; 100 μM) was 59%, the “% human α4β2 Selectivity, α3β4” value [3, 15] was 0.44% and the Ki ([3]; read-out: Ki α3β4, human cloned receptors, 3H-epibatidine) was 190 nM. For the same compound, the Ki [4] was 0.83 nM, the Ki [5] was 27 to 219 nM and the “Fold higher affinity for α2β2 compared to α3β2 and α4β2 subtypes” value [6] was “approximately 5 fold”. The “% human α4β2 Selectivity, α2β2” value [6, 15] was 244%, the Ki ([6]; read-out: Ki α2β2, human cloned receptors, 3H-epibatidine) was 0.34 nM and the “As Antagonist, α4β2 nAChR, inhibition of nicotine-stimulated 86Rb+ efflux” value (shortened to “As Antagonist, α4β2 nAChR, inhibition”) ([7]; 1 μM) was 18%. The “As Antagonist, α4β2 nAChR, inhibition” value ([7]; 10 μM) was 21%, the “As Agonist, α4β2 nAChR, stimulated 86Rb+ efflux” value [7, 14] was 14% and the “As Antagonist, α4β2 nAChR, inhibition” value ([7]; 100 μM) was 56%. For the same compound, the “Affinity at all other receptor subtypes tested” value [8] was “did not exhibit significant affinity”, the “% human α4β2 Selectivity, α4β4” value [9, 15] was 3.05% and the Ki ([9]; read-out: Ki α4β4, human cloned receptors, 3H-epibatidine) was 27.2 nM. For the same compound, the Ki [10] was 169 nM, the “% human α4β2 Selectivity, α2β4” value [11, 15] was 1.58% and the Ki ([11]; read-out: Ki α2β4, human cloned receptors, 3H-epibatidine) was 52.4 nM. For the same compound, the “% human α4β2 Selectivity, α3β2” value [12, 15] was 104%, the Ki ([12]; read-out: Ki α3β2, human cloned receptors, 3H-epibatidine) was 0.8 nM and the “Tolerability of intravenous injections” value ([13]; Sprague-Dawley male and female rats, 1.6, 20 and 40 μg/kg/day) was “well tolerated”. The Morbidity or mortality ([13]; rats, up to 40 μg/kg/day i.v.) was “no morbidity or mortality”.
